Data as given in US20040224979A1, “Treating obesity with selective androgen receptor modulators” (priority 2002, published 2004).

Tests used:
androgen receptor (AR) = experiment: In vitro androgen receptor binding affinity
leptin = experiment: Serum leptin levels in intact male rats (ELISA) after SARM treatment by osmotic pump; conditions: for Leptin, percent of control / Normalized Leptin, percent of control: control = 100%; for Normalized Leptin: serum leptin normalized to body weight; for Leptin: serum, intact male rats, 500 μg/day s.c. osmotic pump
Procedure: All doses were delivered by subcutaneous placement of Alzet osmotic pumps.
Seven, 14 and 28 days after pump implantation, animals were exsanguinated under ketamine/xylazine anesthesia. Serum was collected, separated into 10 aliquots and stored at −80° C.
Serum concentrations of testosterone (T), leptin, Insulin and IGF-1 were determined by commercially available ELISA kits.

[1] = Whole body DEXA body composition (lean body mass, body fat) in ovariectomized female rats; format: in vivo, Sprague-Dawley rats; conditions: 3 mg/day s.c., 90 day time point
Procedure: Two hundred and thirty (230) female Sprague-Dawley rats (23 weeks of age) were used in these studies.
Animals were randomized (n=10 per group) into each of the treatment groups outlined in Table 2 below. Animals assigned to groups 6 through 23 were ovariectomized on day 0 of the experiment.
Drug administration with Compound VI, bicalutamide (an antiandrogen), and/or DHT commenced on day 0 or 90 with the compound of interest administered via daily subcutaneous injection (0.20 mL) and continued until day 120 or 210 of the study. Drug solutions were prepared daily by dissolving in DMSO and dilution with PEG 300. The percentage of DMSO was the same in all vehicles (17.6%), as determined based on the solubility of the test compounds.
Whole body DEXA images were collected up to 120 or 210 days after ovariectomy, as described in Table 2. Lean body mass (LBM), fat mass (FM) and total body mass (TBM) were determined at each time point.

[2] = Organ weights in intact male rats (tissue-selective anabolic activity); format: in vivo, Sprague-Dawley rats; conditions: 500 μg/day

CC(=O)Nc1ccc(OC[C@](C)(O)C(=O)Nc2ccc([N+](=O)[O-])c(C(F)(F)F)c2)cc1 [Compound VI]
in vitro androgen receptor (AR) binding affinity (androgen receptor (AR)): high | Leptin, percent of control (leptin; 1 w): (96%) | Normalized Leptin, percent of control (leptin; 1 w): (93%) | Leptin, percent of control (leptin; 2 w): (107%) | Normalized Leptin, percent of control (leptin; 2 w): (104%) | Leptin, percent of control (leptin; 4 w): (104%) | Normalized Leptin, percent of control (leptin; 4 w): (105%) | Normalized Leptin (leptin; 1 w): 6.65 ± 1.07 (pg/ml)/BW (g) | Normalized Leptin (leptin; 2 w): 8.99 ± 0.99 (pg/ml)/BW (g) | Normalized Leptin (leptin; 4 w): 18.7 ± 4.2 (pg/ml)/BW (g) | Leptin (leptin; 1 w): 1.71 ± 0.31 ng/mL | Leptin (leptin; 2 w): 2.81 ± 0.29 ng/mL | Leptin (leptin; 4 w): 6.62 ± 1.12 ng/mL | decrease in body fat as compared to the ovariectomized (OVX) control group [1]: 3.6% | increase in lean mass as compared to the ovariectomized (OVX) control group [1]: 9% | changes in organ weight [2]: tissue-selective anabolic activity

C[C@](O)(COc1ccc(F)cc1)C(=O)Nc1ccc([N+](=O)[O-])c(C(F)(F)F)c1 [Compound VII]
decrease of serum leptin levels compared with the vehicle control (leptin; 2 w): 36% | decrease of serum leptin levels compared with the vehicle control (leptin; 4 w): 22% | Leptin, percent of control (leptin; 1 w): (84%) | Normalized Leptin, percent of control (leptin; 1 w): (81%) | Leptin, percent of control (leptin; 2 w): (64%) | Normalized Leptin, percent of control (leptin; 2 w): (63%) | Leptin, percent of control (leptin; 4 w): (77%) | Normalized Leptin, percent of control (leptin; 4 w): (78%) | Normalized Leptin (leptin; 1 w): 5.80 ± 1.73 (pg/ml)/BW (g) | Normalized Leptin (leptin; 2 w): 5.47 ± 1.03 (pg/ml)/BW (g) | Normalized Leptin (leptin; 4 w): 13.82 ± 1.17 (pg/ml)/BW (g) | Leptin (leptin; 1 w): 1.45 ± 0.47 ng/mL | Leptin (leptin; 2 w): 1.68 ± 0.29 ng/mL | Leptin (leptin; 4 w): 4.89 ± 0.61 ng/mL | changes in organ weight [2]: tissue-selective anabolic activity

CCC(=O)O[C@H]1CC[C@H]2[C@@H]3CCC4=CC(=O)CC[C@]4(C)[C@H]3CC[C@]12C [TP, testosterone propionate, reference compound]
Leptin, percent of control (leptin; 1 w): (102%) | Normalized Leptin, percent of control (leptin; 1 w): (93%) | Leptin, percent of control (leptin; 2 w): (84%) | Normalized Leptin, percent of control (leptin; 2 w): (92%) | Leptin, percent of control (leptin; 4 w): (92%) | Normalized Leptin, percent of control (leptin; 4 w): (90%) | Normalized Leptin (leptin; 1 w): 6.67 ± 1.96 (pg/ml)/BW (g) | Normalized Leptin (leptin; 2 w): 7.04 ± 1.97 (pg/ml)/BW (g) | Normalized Leptin (leptin; 4 w): 16.0 ± 1.7 (pg/ml)/BW (g) | Leptin (leptin; 1 w): 1.74 ± 0.53 ng/mL | Leptin (leptin; 2 w): 2.19 ± 0.67 ng/mL | Leptin (leptin; 4 w): 5.89 ± 0.77 ng/mL
